Patent publication US10617664B2, “Brain derived PPARα ligands” (Rush University Medical Center, priority 2015, dated 2020)

Each compound was assayed on PPRE-driven luciferase activity (assay: PPRE-luciferase assay in Ppara-null astrocytes transduced with Ppara constructs). Conditions: Ppara-null astrocytes (empty vector).
Assay type: cell-based, mouse
Protocol: Astrocytes plated at 60-70% confluence were transfected with tk-PPREx3-Luc, a PPRE-dependent luciferase reporter construct. After 24 h of transfection, cells were treated with different concentrations of HEX (FIG. 10A), OCT (FIG. 10B) and HMB (FIG. 10C) for 4 h followed by monitoring luciferase activity. Under similar experimental condition, MTT was performed to understand the effect of these ligands on cell viability (FIG. 10D, HEX; FIG. 10E, OCT; FIG. 10F, HMB). Results are mean±SD of three independent experiments. ^ap<0.001 vs. control. Ppara-null astrocytes were transduced with lentivirions containing empty vector (FIG. 10G), FL-Ppara (FIG. 10H), Y314D-Ppara (FIG. 10I), Y464D-Ppara (FIG. 10J), and Y314D/Y464D-Ppara (FIG. 10K) for 48 h followed by transfection with tk-PPREx3-Luc. After 24 h of transfection, cells were treated with different doses of HEX, OCT and HMB for 4 h followed by monitoring luciferase activity. PPRE luciferase activity was assayed in Ppara-null astrocytes transduced with lentivirions containing empty vector (FIG. 10L), FL-Ppara (FIG. 10M), Y314D-Ppara (FIG. 10N), Y464D-Ppara (FIG. 10O), and Y314D/Y464D-Ppara (FIG. 10P) after treatment with different doses of WY14643, fenofibrate, and clofibrate. PPRE luciferase activity was assayed in primary hippocampal neurons transduced with lentivirions containing empty vector (FIG. 10Q), FL-Ppara (FIG. 10R), Y314D-Ppara (FIG. 10S), Y464D-Ppara (FIG. 10T), and Y314D/Y464D-Ppara (FIG. 10U) after treatment with different doses of HEX, OCT and HMB. Results are mean±SD of three independent experiments. ^ap<0.001 vs. control.

Row | PPRE-driven luciferase activity | SMILES
1 | remained unable to induce | CCCCCCCCCCCCCCCC(N)=O [HEX, hexadecanamide]
2 | remained unable to induce | CCOC(=O)C(C)(C)C(C)O (stereo not drawn) [HMB]
3 | remained unable to induce | CCCCCCCCC=CCCCCCCCC(N)=O [OCT, 9-octadecenamide]

These compounds were tested against T1, Y464D-PPARα (Mus musculus, UniProt P23204, Y464D) (assay: Thermal shift assay, Y464D-PPARα with ligands). Conditions: not given.
T1 construct: the entire mouse GFP-Ppara gene (GFP-FLPpara) and three different mutated genes were cloned; GFP; made in house; host or cells: not clearly stated (lentivirus packaged in HEK293FT cells)
T1 sequence (P23204 1-468 Y464D): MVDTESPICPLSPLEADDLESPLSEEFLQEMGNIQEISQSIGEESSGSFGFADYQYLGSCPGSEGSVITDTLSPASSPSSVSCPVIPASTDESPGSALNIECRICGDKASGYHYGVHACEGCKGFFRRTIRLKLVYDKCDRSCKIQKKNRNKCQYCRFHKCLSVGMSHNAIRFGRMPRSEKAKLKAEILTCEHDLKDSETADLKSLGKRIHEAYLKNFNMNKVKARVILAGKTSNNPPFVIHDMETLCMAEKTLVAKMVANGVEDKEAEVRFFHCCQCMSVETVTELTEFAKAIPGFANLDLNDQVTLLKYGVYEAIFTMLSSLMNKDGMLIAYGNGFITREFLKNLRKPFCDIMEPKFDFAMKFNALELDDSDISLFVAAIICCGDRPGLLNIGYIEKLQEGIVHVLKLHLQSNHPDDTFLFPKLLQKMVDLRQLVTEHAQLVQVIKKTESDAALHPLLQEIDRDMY
Assay type: binding
Protocol: Lentivirus-mediated de novo expression studies were performed, where wild type full-length (GFP-FLPpara) was overexpressed and three different LBD-mutated PPARα (GFP-Y314D, GFP-Y464D and GFP-Y314D/Y464D Ppara) recombinant proteins (FIG. 9D) were expressed in neurons followed by binding analyses with three endogenous ligands. Briefly, site directed mutagenesis was performed in the mouse PPARα with Y314 and Y464 residues replaced separately or together with aspartate (D). After that, the entire mouse GFP-Ppara gene (GFP-FLPpara) and three different mutated genes were cloned in the pLenti6/V5-TOPO lentiviral expression vector (FIG. 3D), packaged in lentivirus particle with HEK293FT cells, purified full length and mutated PPARα proteins in a GFP-affinity column, and finally thermal shift assays were performed in order to analyze their conformational stability. […] After 48 h of transduction, the cells were homogenized, passed through GFP-affinity column, eluted, fractionated with chloroform-methanol, and finally analyzed by GC-MS for the detection of ligands. […] On the other hand, mutation of the Y464 completely knocked down the ligand binding affinity as we observed profound loss of ligand binding in both lenti-GFP-Y464D-Ppara (FIG. 3K, FIG. 9K) and lenti-GFP-Y314D/Y464D-Ppara (FIG. 3L, FIG. 9L)-transduced Ppara-null neurons. Throughout these analyses, we used 2,4-bis (α, α-dimethyl benzyl) phenol as an internal standard (Supplementary FIG. 5A-F). We normalized peak area of different ligands with that of internal standard and then quantified the binding affinity of these ligands with different construct of PPARα by peak integration statistics (Table 1).
Thermal shift assays were performed in Applied Biosystems 7500 standard real-time thermal cycler machine with commercially available thermal shift dye kit (Life technologies; Cat #4461146). For each reaction, purified protein (0.5 μg to 1 μg) was added to 18 μL of thermal shift buffer provided with the kit, and 1-2 μL of dye. […]

Row | effect on Tm of Y464D-PPARα | SMILES
4 | did not alter the Tm | CCCCCCCCCCCCCCCC(N)=O [HEX, hexadecanamide]
5 | did not alter the Tm | CCOC(=O)C(C)(C)C(C)O (stereo not drawn) [HMB]
6 | did not alter the Tm | CCCCCCCCC=CCCCCCCCC(N)=O [OCT, 9-octadecenamide]
